Data taken from US20240269151A1, “NASAL SLEEP FORMULATION” (CS MEDICA A/S, priority 2021, published 2024).

Experiment: Comparison of nasal sleep compositions formulated with type A or type B crystalline CBD
Type: in vivo
Settings: nasal sleep compositions differing only in the crystalline CBD used
Description: Two nasal sleep compositions are prepared as disclosed herein, such as according to Example 1, 5 and/or 7, the only difference being that the crystalline CBD used in the formulation is either of type A (needle-like crystals; FIG. 1) or type B (bunch/cluster-like; FIG. 2).
Type A crystalline CBD is sourced from Enecta, while type B CBD is sourced from Pharma Hemp. Further details can e.g. be found in the first aspect of the invention, such as Table 1.

## C=C(C)[C@@H]1CCC(C)=C[C@H]1c1c(O)cc(CCCCC)cc1O [type A CBD, Cannabidiol]
  Activity/potency of type A CBD versus type B CBD: significantly more active than type B CBD
Listed as CBD with a needle-like crystal structure
  Activity/potency of type A CBD versus type B CBD: significantly more potent than CBD with a different crystal structure
